Experimental data: PMC11845649, “Unravelling physical and radiobiological effects of proton boron fusion reaction with anionic metallacarboranes ([o-COSAN]^-) in breast cancer cells” (EJNMMI Research, 2025)
One block for each substance: values may come before it.

Tests used:
[1] = test system: MDA-MB-231 cells; assay: Cellular uptake by nuclear microscopy (STIM, PIXE, EBS), Co as signature; assay type: cell-based
Procedure: MDA-MB-231 cells (10^4-10^5 cells) were seeded on 100 nm thick silicon nitride (Si3N4) membranes (Silson Ltd., UK), allowed to adhere, and incubated for 24 h in medium containing Na[o-COSAN] at 50 µM. The culture medium was removed and the monolayer of cells on the membranes was washed with cold PBS, immediately frozen at -80 °C, transferred to a cryostat at -25 °C and allowed to dry overnight for subsequent analysis of [o-COSAN]^− uptake. […] Briefly, a 2.0 MeV focused proton beam of 3 × 4 µm^2 was raster scanned across the target cell on the silicon nitride window, simultaneously delivering images of density by STIM (Scanning Transmission Ion Microscopy), elemental distributions by PIXE (Particle Induced X-ray Emission) and matrix constituents by EBS (Elastic Backscattering Spectroscopy). Spectra recorded and/or extracted from maps in selected regions of the cell allowed Co concentrations to be determined in major cell compartments, such as the cytoplasm and nucleus. At least three cells treated with Na[o-COSAN] at a concentration of 50 µM were analyzed, and Co concentrations were measured using a minimum of five spectra acquired from both the nucleus and cytoplasm regions. The average concentrations for each of these regions were calculated based on the individual spectra. Data acquisition, spectra processing and concentration calculation were performed using the OMDAQ-3 program (Oxford Microbeams Ltd., UK) (http://www.microbeams.co.uk/ Accessed 12-6-2024). Elemental concentrations are expressed as µg/g dry weight.
The uptake of [o-COSAN]^− in single MDA-MB-231 cells was analysed using a combination of nuclear microscopy techniques: STIM, PIXE, and EBS. These techniques allow correlative imaging and quantification of elemental distributions. […] These morphological details were essential for correlating with the elemental distributions obtained from PIXE and assessing localization. […] Therefore, considering the stoichiometry of the carborane cluster [C2B9H11]^−2.in the [o-COSAN]^− molecule, the boron-11 (^11B) content can be estimated. […] This is important information provided by nuclear microscopy. It will be needed for future advanced dosimetry studies, including PBFR.

[2] = test system: MDA-MB-231 cells; assay: γ-H2AX foci quantification after proton irradiation; assay type: cell-based
Procedure: (§1) Proton irradiation was performed in air using the external microbeam facility at the Van de Graaff accelerator of the CTN/IST. Briefly, a focused 2.0 MeV proton beam of ∼70 × 70 µm^2 was used and rastered scanned over a cell monolayer placed in a cell plate, positioned prependicular to the proton beam path. The raster scan duration and the irradiation time of 10 s ensured irradiation homogeneity. The maximum achievable scan area is in the range of 0.08–0.13 cm^2 (corresponding to 40% of the total area of one well, 0.32 cm^2, in a 96-well plate). A proton beam current in the pA range was used, corresponding to a proton intensity of 2–6 × 10^6 protons/s. Prior to irradiation, part of the culture medium was removed, as described elsewhere. The proton beam energy was tuned to 675 keV (main resonance energy of the proton-boron nuclear reaction) within the cell layer by controlling the air path length and using Mylar^R foils as attenuators. The details of the irradiation geometry are described above and illustrated in Fig. 2.
MDA-MB-231 cells were seeded at a density of 10,000 cells per well in an eight-well chamber slide and allowed to attach overnight. Cells were incubated with 50 and 100 µM of Na[o-COSAN], for 24 h at 37 °C, and then irradiated with protons, as described in 2.4. MDA-MB-231 cells were washed three times with PBS and fixed with 4% formaldehyde in PBS for 15 min. After washing with PBS, cells were permeabilized with Triton X-100 (0.5%) at room temperature for 5 min followed by two washing steps with 1% BSA in PBS. Then, cells were incubated with an anti-γ-H2AX primary antibody (mouse anti-γ-H2AX (ser139), Stressgen) at 2 µg/mL for 1 h. […] Cells were analyzed at under ×64 magnification. Several high-quality 2D images were randomly collected in each slide and analyzed using a modified Speckle Count pipeline from the freeware CellProfiler. At least 200 nuclei were analyzed per experiment per dose. […]
The efficiency of [o-COSAN]^- was evaluated after irradiation with 8 Gy of protons in MDA-MB-231 cells. […]

[3] = test system: MDA-MB-231 cells; assay: Clonogenic cell survival after proton irradiation (PBFR, 675 keV); assay type: cell-based; settings: for surviving fraction vs control irradiated cells: 24 h incubation, 8 Gy protons, p < 0.05
Procedure: as §1
MDA-MB-231 cells were seeded in each well of a 6 well plate and incubated for 24 h. Cells were incubated with 50 and 100 µM of Na[o-COSAN], for 24 h at 37 °C, and then irradiated with protons, as described in 2.3.1. After irradiation, fresh medium was added and cells were incubated for 7 days in the same conditions. After 7 days of incubation, the medium was aspirated and cells were fixed and stained with Giemsa’s azur eosin methylene blue solution diluted 5% v/v in buffer solution. Finally, colonies were manually counted. Moreover, a CellProfiler pipeline was used to check the size of the different colonies observed in order to assess whether proton irradiation interfered with the capacity of replication of MDA-MB-231 cells.
The efficiency of [o-COSAN]^- was evaluated after irradiation with 8 Gy of protons in MDA-MB-231 cells. The irradiation with protons was carried out assuming that the proton-boron nuclear reaction resonance energy of 675 keV was reached within the cell monolayer.

[4] = test system: MDA-MB-231 tumor-bearing mice; assay: Biodistribution, boron by ICP-OES in MDA-MB-231 xenograft model; assay type: in vivo, mice (Balb/cSlc-nu/nu); settings: 7.5 mgB/kg intravenously
Procedure: MDA-MB-231 tumor-bearing mice (Balb/cSlc-nu/nu, female, 5–6 weeks old, 14–20 g, Sankyo Labo Service Co., Ltd., Japan) were prepared by injecting subcutaneously (s.c.) a suspension of MDA-MB-231 cells (8.0 × 10^5 cells/mouse) directly into the right thigh. The mice were kept on a regular chow diet and water and maintained under 12 h light/dark cycle in an ambient atmosphere. When the tumor diameter became 5 to 7 mm, the mice were injected via the tail vein with a 200 µL PBS solution of Na[o-COSAN] (7.5 mgB/kg). At 1 h after injection, the mice were lightly anesthetized, and blood samples were collected by cardiac puncture. The mice were then sacrificed by cervical dislocation and dissected. Heart, liver, lung, kidney, spleen, muscle, brain and tumor were excised, washed with 0.9% NaCl solution, and weighed. The excised organs were digested with 1 mL of HNO3 at 90 °C for 1 h, and then the digested samples were diluted with distilled water. After filtering through a hydrophobic filter, boron concentration was measured by an inductively coupled plasma optical emission spectroscopy (ICP-OES, iCAP 7400 Duo, Thermo Fisher Scientific Inc., USA). All animal experiments were conducted in accordance with the Guide for the Care and Use of Laboratory Animals approved by the Animal Use Review Board and Ethical Committee of Tokyo Institute of Technology (Permission number: D2021007).
The biodistribution studies provide important preclinical information regarding the identity of the potential target organs and tissues. Na[o-COSAN] (7.5 mgB/kg) was administrated intravenously to MDA-MB-231 breast cancer xenograft model mice, and boron uptake in the target organs was evaluated at 1 and 4 h post-injection.

[5] = design: method as in doi:10.1021/cr00010a005, PMID 34944987, PMID 34576098; settings: cited from earlier work
[6] = test system: MDA-MB-231 breast cancer cells; assay: MTT cell viability / cytotoxic activity; assay type: cell-based; settings: MDA-MB-231, MTT, mean ± SD of two independent experiments
Procedure: MDA-MB-231 breast cancer cells were purchased from American Type Culture Collection (ATCC, HTB-26). Cells were cultured in DMEM medium supplemented with 10% fetal bovine serum (FBS) and incubated at 37 °C in a humidified 5% CO2 atmosphere. Na[o-COSAN] stock solutions at 1 mM were prepared in DMEM medium without supplements and kept at -20 °C. Cell viability was assessed using the MTT assay following a method similar to the one previously described. Briefly, MDA-MB-231 cells (0.8 − 5 × 10^4 cells/well) were seeded in 96-well plates and left to adhere. After 24 h, cells were incubated with increasing concentrations of Na[o-COSAN] from 1 µM to 1000 µM for 6 and 24 h. After incubation, the medium was removed, and each well was incubated with an MTT solution (0.5 mg/mL in medium) for 3 h at 37 °C. Then, the medium was discarded, and the formazan crystals were solubilized in 200 µL DMSO. Absorbance was measured at 570 nm using an Varioskan TM LUX microplate reader (Thermo Scientific, Waltham, MA, USA). The dose-response curve fit of the absorbance as a function of log10[concentration] was performed using GraphPad Prism software (version 9.5.1) to assess viability and IC50 (concentration at which half the cell population is expected to die) at 6 and 24 h. […]

[7] = test system: U87 glioblastoma cells; design: method as in PMID 36373493; settings: protons at 675 keV, dose 9 Gy; cited from earlier work

γ-H2AX foci induction without irradiation ([2]; non-irradiated cells): does not induce new γ-H2AX foci
tumor boron uptake ([4]; 1 and 4 h post-injection): high and maintained after 4 h
boron accumulation in liver and lungs ([4]; 1 h post-injection): significant accumulation of boron
boron accumulation in kidney and spleen ([4]; 1 h post-injection, relative to liver and lungs): less
boron in target organs after 4 h ([4]; 4 h post-injection): considerable clearance of boron
Substance: sodium salt of cobaltabisdicarbollide [Na[o-COSAN]]
Co concentration, nucleus compared to cytoplasm ([1]; 24 h, 50 µM, Fig. 3C): significantly higher concentrations of Co in the nucleus compared to the cytoplasm
11B content in the nucleus ([1]; estimated from Co concentration and cluster stoichiometry, 24 h, 50 µM): 425 µg/g
11B atoms in the nuclear volume of a single cell ([1]; estimated from Co concentration, 24 h, 50 µM): approximately 2.3 × 10^9 atoms
average Co concentration in the nucleus ([1]; single MDA-MB-231 cells, 24 h incubation with 50 µM, PIXE, dry weight): 153 µg/g
increase in average number of γ-H2AX foci ([2]; irradiated cells (8 Gy protons) incubated with 50 µM): 55%
increase in average number of γ-H2AX foci ([2]; irradiated cells (8 Gy protons) incubated with 100 µM): 27%
surviving fraction vs control irradiated cells ([3]; 50 µM): significant decrease
surviving fraction vs control irradiated cells ([3]; 100 µM): significant decrease
decrease of average colony size vs cells irradiated with protons in the absence of compound ([3]; 100 µM, irradiated 8 Gy protons, p < 0.001): 40%
decrease of average colony size vs non-irradiated counterparts ([3]; 100 µM, irradiated 8 Gy protons, p < 0.01): 30%
effect on surviving fraction of treated non-irradiated cells ([3]; non-irradiated, vs control conditions): minor cytostatic effects
stability [5]: remarkably stable
water solubility [5]: water-soluble
IC50 ([6]; 6 h incubation): 245 ± 94 µM
IC50 ([6]; 24 h incubation): 137 µM

Substance: ferrabis(dicarbollide) [Na[o-FESAN]]
cell viability and survival after proton irradiation [7]: significant loss of cell viability and survival
